# From the supplement of paper PMC11451515
# Tested on: NOMO1
# Assay: cell viability relative to DMSO control; higher = less cytotoxic
# Conditions: 48 h
# Method in brief: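 NOMO1 or SEM cells were plated at 500 cells/well and P12-Ichikawa cells at 1000 cells/well in 1536-well plates (5 μl), after each leukemia line had been adapted for at least four passages in each medium. Pin dosing delivered library compounds in DMSO at 11 threefold concentrations, 47 μM to 0.79 nM. CellTiter-Glo One luminescence was read after 48 h at 37°C. Viability is reported as a per-plate percentage of DMSO wells, with cell-free wells as background.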
# [1] = HPLM + 10% dialyzed FBS, 0.000781 µM
# [2] = HPLM + 10% dialyzed FBS, 0.00234 µM
# [3] = HPLM + 10% dialyzed FBS, 0.00702 µM
# [4] = HPLM + 10% dialyzed FBS, 0.0211 µM
# [5] = HPLM + 10% dialyzed FBS, 0.0632 µM
# [6] = HPLM + 10% dialyzed FBS, 0.19 µM
# [7] = HPLM + 10% dialyzed FBS, 0.569 µM
# [8] = HPLM + 10% dialyzed FBS, 1.71 µM
# [9] = HPLM + 10% dialyzed FBS, 5.12 µM
# [10] = HPLM + 10% dialyzed FBS, 15.4 µM
# [11] = HPLM + 10% dialyzed FBS, 46.1 µM
# [12] = RPMI 5 mM glucose + 10% FBS, 0.000781 µM
# [13] = RPMI 5 mM glucose + 10% FBS, 0.00234 µM
# [14] = RPMI 5 mM glucose + 10% FBS, 0.00702 µM
# [15] = RPMI 5 mM glucose + 10% FBS, 0.0211 µM
# [16] = RPMI 5 mM glucose + 10% FBS, 0.0632 µM
# [17] = RPMI 5 mM glucose + 10% FBS, 0.19 µM
# [18] = RPMI 5 mM glucose + 10% FBS, 0.569 µM
# [19] = RPMI 5 mM glucose + 10% FBS, 1.71 µM
# [20] = RPMI 5 mM glucose + 10% FBS, 5.12 µM
# [21] = RPMI 5 mM glucose + 10% FBS, 15.4 µM
# [22] = RPMI 5 mM glucose + 10% FBS, 46.1 µM
# [23] = RPMI 5 mM glucose + 10% dialyzed FBS, 0.000781 µM
# [24] = RPMI 5 mM glucose + 10% dialyzed FBS, 0.00234 µM
# [25] = RPMI 5 mM glucose + 10% dialyzed FBS, 0.00702 µM
# [26] = RPMI 5 mM glucose + 10% dialyzed FBS, 0.0211 µM
# [27] = RPMI 5 mM glucose + 10% dialyzed FBS, 0.0632 µM
# [28] = RPMI 5 mM glucose + 10% dialyzed FBS, 0.19 µM
# [29] = RPMI 5 mM glucose + 10% dialyzed FBS, 0.569 µM
# [30] = RPMI 5 mM glucose + 10% dialyzed FBS, 1.71 µM
# [31] = RPMI 5 mM glucose + 10% dialyzed FBS, 5.12 µM
# [32] = RPMI 5 mM glucose + 10% dialyzed FBS, 15.4 µM
# [33] = RPMI 5 mM glucose + 10% dialyzed FBS, 46.1 µM
Structure (SMILES),cell viability [1] [%],cell viability [2] [%],cell viability [3] [%],cell viability [4] [%],cell viability [5] [%],cell viability [6] [%],cell viability [7] [%],cell viability [8] [%],cell viability [9] [%],cell viability [10] [%],cell viability [11] [%],cell viability [12] [%],cell viability [13] [%],cell viability [14] [%],cell viability [15] [%],cell viability [16] [%],cell viability [17] [%],cell viability [18] [%],cell viability [19] [%],cell viability [20] [%],cell viability [21] [%],cell viability [22] [%],cell viability [23] [%],cell viability [24] [%],cell viability [25] [%],cell viability [26] [%],cell viability [27] [%],cell viability [28] [%],cell viability [29] [%],cell viability [30] [%],cell viability [31] [%],cell viability [32] [%],cell viability [33] [%]
COC1=CC=C2/C3=N/CCN3\C(=N/C2=C1OC)NC(=O)C4=CC=CN=C4,124,132,123,131,121,126,114,111,93.2,86,78.6,104,115,113,123,132,108,110,114,107,115,92.7,116,141,117,127,131,104,103,103,83.6,76.5,68
CC(C)[C@H](N)C(=O)OCCOC[N]1C=NC2=C1\N=C(N)/NC2=O,102,119,110,122,135,135,133,123,133,113,142,–,–,–,–,–,–,–,–,–,–,–,–,–,–,–,–,–,–,–,–,–,–
Cn1cc(C[C@@H](N)C(=O)O)c2ccccc21,107,106,108,106,92.4,111,100,101,101,90.8,94.9,90.4,90.7,96.5,107,89.6,95.1,95.6,95.5,92.6,97.9,81.2,90,90.1,93.4,94,101,98.9,93.8,88.9,93.3,87,76.7
COc1cc(/C=C/C(=O)O)ccc1O,76.1,90.7,91.8,100,107,100,103,98.8,82.6,108,101,84.9,112,87.8,93.6,95.2,101,92.2,95.1,107,96.6,104,84.3,91,93.9,93.1,83.7,96.3,95.7,86.9,89.9,92.5,102
OCCC#Cc1nc(-c2ccc(F)cc2)c(-c2ccncc2)n1CCCc1ccccc1,–,–,–,–,–,–,–,–,–,–,–,119,122,122,135,127,138,150,136,128,132,116,–,–,–,–,–,–,–,–,–,–,–
Cc1c[nH]c(-c2cnc(NCCNc3ccc(C#N)cn3)nc2-c2ccc(Cl)cc2Cl)n1,72.9,85.8,94.2,78.5,87.3,101,89.5,93.3,80.3,67.5,57.7,66.4,79.7,83.7,80.7,96.7,83.5,77.5,85.7,76.5,81.3,64.2,76.7,80.8,90.1,89.2,83.6,90.2,85.9,94.6,64.8,88,64.7
C[C@]12CCC\3=C\4CCC(=O)\C=C4CC[C@H]3[C@@H]1CC[C@@]2(O)CC#N,123,123,138,144,143,139,138,125,158,137,168,–,–,–,–,–,–,–,–,–,–,–,–,–,–,–,–,–,–,–,–,–,–
CNC(=O)CN1CCC(Oc2cc3c(Nc4cccc(Cl)c4F)ncnc3cc2OC)CC1,–,–,–,–,–,–,–,–,–,–,–,–,–,–,–,–,–,–,–,–,–,–,116,122,138,133,141,144,52.7,41.8,32.1,33.7,31.7
C=CCc1ccc(O)c(-c2ccc(O)c(CC=C)c2)c1,111,117,112,120,112,94.8,90.6,93.4,84.3,86.8,88.7,107,105,119,118,122,112,95.3,61,51,60.4,62.6,114,106,107,112,119,111,91.4,54.7,47.9,58.9,53.8
OC(CN1CCN(c2cccc(Cl)c2)CC1)C(c1ccccc1)c1ccccc1 (stereo unspecified),–,–,–,–,–,–,–,–,–,–,–,116,119,133,127,132,126,108,22.7,16.6,14.1,7.62,124,118,124,126,138,125,126,31,27.8,24,9.63
